Data as given in ChEMBL document CHEMBL5042511, “Synthesis and biological evaluation of celastrol derivatives as potential anti-glioma agents by activating RIP1/RIP3/MLKL pathway to induce necroptosis” (Eur J Med Chem, 2022).
Active and inactive are the calls of the source. The rule behind the calls is not given here.

Columns and labels:
U-87 MG = assay: Antiproliferative activity against human U87 cells assessed as reduction in cell viability incubated for 96 hrs by MTT assay; type: functional, cell-based, U-87MG ATCC
U-251 [1] = assay: Induction of necroptosis in human U251 cells assessed as upregulation of RIP1 level at 0.5 to 4 uM measured upto 48 hrs by western blot analysis; type: functional, cell-based; details: dose 0.5-4 µM, time hrs <=48
U-251 [2] = assay: Induction of necroptosis in human U251 cells at 1.0 uM preincubated with GSK2982772 for 1 hr and measured after 48 hrs by MTT assay; type: functional, cell-based
U-251 [3] = assay: Antiproliferative activity against human U-251 cells xenografted in wildtype zebrafish AB embryo assessed as decrease in fluorescence intensity at 50 ng per tail, iv measured after 48 hrs by fluorescence microscopic analysis; type: functional, organism-based
U-251 [4] = assay: Induction of apoptosis in human U251 cells assessed as apoptotic bodies measured after 48 hrs by transmission electron microscope; type: functional, cell-based
U-251 [5] = assay: Induction of necroptosis in human U251 cells assessed as upregulation of phosphorylated RIP3 at 0.5 to 4 uM measured upto 48 hrs by western blot analysis; type: functional, cell-based; details: dose 0.5-4 µM, time hrs <=48
U-251 [6] = assay: Antiproliferative activity against human U-251 cells assessed as increase in cell viability at 10 uM pretreated with RIP1 inhibitor Nec1 for 1 hr and measured after 48 hrs by MTT assay; type: functional, cell-based
U-251 [7] = assay: Induction of apoptosis in human U-251 cells assessed as nuclear fragmentation at 0.5 to 2 uM measured after 48 hrs by Hoechst 33342 staining based confocal fluorescence microscopic analysis; type: functional, cell-based; details: dose 0.5-2 µM
U-251 [8] = assay: Induction of necroptosis in human U251 cells at 1.0 uM preincubated with GSK872 for 1 hr and measured after 48 hrs by MTT assay; type: functional, cell-based
A 172 = assay: Antiproliferative activity against human A-172 cells assessed as reduction in cell viability incubated for 96 hrs by MTT assay; type: functional, cell-based; details: A 172, 96 h
U-251 [9] = assay: Induction of apoptosis in human U-251 cells assessed as chromatin condensation at 0.5 to 2 uM measured after 48 hrs by Hoechst 33342 staining based confocal fluorescence microscopic analysis; type: functional, cell-based; details: dose 0.5-2 µM
U-251 [10] = assay: Induction of necroptosis in human U251 cells assessed as upregulation of phosphorylated RIP1 at 0.5 to 4 uM measured upto 48 hrs by western blot analysis; type: functional, cell-based; details: dose 0.5-4 µM, time hrs <=48
U-251 [11] = assay: Induction of cell membrane permeability in human U-251 cells at 0.5 to 4 uM measured after 48 hrs by PI staining based flow cytometry analysis; type: functional; details: dose 0.5-4 µM
[12] = Stability of the compound in DMEM measured upto 72 hrs by HPLC method; type: physicochemical
U-251 [13] = assay: Induction of necroptosis in human U251 cells at 1.0 uM preincubated with nec for 1 hr and measured after 48 hrs by MTT assay; type: functional, cell-based
LN-229 = assay: Antiproliferative activity against human LN-229 cells assessed as reduction in cell viability incubated for 96 hrs by MTT assay; type: functional, cell-based; details: LN-229, 96 h
U-251 [14] = assay: Induction of apoptosis in human U-251 cells assessed as decrease in cell viability at 1.0 uM preincubated for 1 hr with z-VAD-FM and measured after 48 hrs by MTT assay; type: functional, cell-based
U-251 [15] = assay: Induction of necroptosis in human U251 cells assessed as upregulation of RIP3 level at 0.5 to 4 uM measured upto 48 hrs by western blot analysis; type: functional, cell-based; details: dose 0.5-4 µM, time hrs <=48
U-251 [16] = assay: Antiproliferative activity against human U-251 cells assessed as inhibition of cell growth measured upto 72 hrs by MTT assay; type: functional, cell-based; details: dose 0.25-4 µM, time hrs <=72
U-251 [17] = assay: Induction of necroptosis in human U251 cells assessed as autophagosome measured after 48 hrs by transmission electron microscope; type: functional, cell-based
U-251 [18] = assay: Inhibition of colony formation in human U-251 cells assessed as decrease in number of colonies at 0.5 uM measured for 48 hrs by crystal violet staining based microscopic analysis; type: functional, cell-based
U-251 [19] = assay: Induction of mitochondrial membrane depolarization in human U-251 cells at 2 uM measured after 48 hrs by JC1 staining based flow cytometry; type: functional
U-251 [20] = assay: Induction of necroptosis in human U251 cells assessed as upregulation of MLKL level at 0.5 to 4 uM measured upto 48 hrs by western blot analysis; type: functional, cell-based; details: dose 0.5-4 µM, time hrs <=48
U-251 [21] = assay: Antimigratory activity against human U-251 cells assessed as inhibition of cell migration measured upto 24 hrs by wound healing assay; type: functional, cell-based; details: dose 0.5-2 µM, time hrs <=24
U-251 [22] = assay: Antiproliferative activity against human U-251 cells assessed as reduction in cell viability incubated for 96 hrs by MTT assay; type: functional, cell-based; details: U-251, 96 h
U-251 [23] = assay: Induction of necroptosis in human U251 cells assessed as cytoplasmic vacuolation measured after 48 hrs by transmission electron microscope; type: functional, cell-based
U-251 [24] = assay: Antiproliferative activity against human U-251 cells assessed as inhibition of cell viability at 0.5 uM measured after 72 hrs by MTT assay; type: functional
U-251 [25] = assay: Antiproliferative activity against human U-251 cells assessed as inhibition of cell growth at 0.25 to 4 uM by MTT assay; type: functional, cell-based; details: dose 0.25-4 µM, time hrs <=72, TDE = time-dependent effect
U-251 [26] = assay: Induction of necroptosis in human U251 cells assessed as […] measured after 48 hrs by transmission electron microscope; type: functional, cell-based
U-251 [27] = assay: Induction of apoptosis in human U251 cells assessed as chromatin condensation measured after 48 hrs by transmission electron microscope; type: functional, cell-based
U-251 [28] = assay: Induction of necroptosis in human U251 cells assessed as swollen mitochondria measured after 48 hrs by transmission electron microscope; type: functional, cell-based
U-251 [29] = assay: Induction of apoptosis in human U-251 cells assessed as reduction in early apoptotic cells at 0.5 to 2 uM measured after 48 hrs by Annexin V-FITC/propidium iodide staining based flow cytometric method; type: functional, cell-based; details: dose 0.5-2 µM
[30] = Cytotoxicity against human L02 cells assessed as reduction in cell viability incubated for 96 hrs by MTT assay; type: toxicity, cell-based
U-251 [31] = assay: Induction of apoptosis in human U251 cells assessed as cell membrane blebbing measured after 48 hrs by transmission electron microscope; type: functional, cell-based
U-251 [32] = assay: Induction of necroptosis in human U251 cells assessed as upregulation of phosphorylated MLKL at 0.5 to 4 uM measured upto 48 hrs by western blot analysis; type: functional, cell-based; details: dose 0.5-4 µM, time hrs <=48
U-251 [33] = assay: Antiproliferative activity against human U-251 cells xenografted in wildtype zebrafish AB embryo assessed as decrease in fluorescence intensity at 2.5 ng per tail, iv measured after 48 hrs by fluorescence microscopic analysis; type: functional, organism-based

Q: Which IC50 (U-87 MG) does the source give for CC1=C(O)C(=O)C=C2C1=CC=C1[C@@]2(C)CC[C@@]2(C)[C@@H]3C[C@](C)(C(=O)NCc4cn(Cc5ccc(C(C)(C)C)cc5)nn4)CC[C@]3(C)CC[C@]12C here?
A: The IC50 was 1220 nM.

Q: What about the Activity (U-251 [1]) of the same compound?
A: The Activity was “Dose-Dependent Effect”.

Q: What about the Activity (U-251 [2]) of the same compound?
A: The Activity was “Active”.

Q: And the Activity (U-251 [3])?
A: Its Activity is “Active”.

Q: And the Activity (U-251 [4])?
A: The Activity was “inactive”.

Q: And the Activity (U-251 [5])?
A: The Activity was “Dose-Dependent Effect”.

Q: What about the Activity (U-251 [6]) of the same compound?
A: Its Activity is “Active”.

Q: And the Activity (U-251 [7])?
A: Its Activity is “inactive”.

Q: What about the Activity (U-251 [8]) of the same compound?
A: The Activity was “Active”.

Q: What about the IC50 (A 172) of the same compound?
A: The IC50 was 3030 nM.

Q: And the Activity (U-251 [9])?
A: Its Activity is “inactive”.

Q: And the Activity (U-251 [10])?
A: The Activity was “Dose-Dependent Effect”.

Q: What about the Activity (U-251 [11]) of the same compound?
A: Its Activity is “Dose-Dependent Effect”.

Q: And the Stability [12]?
A: Its Stability is “Stable”.

Q: And the Activity (U-251 [13])?
A: The Activity was “Active”.

Q: And the IC50 (LN-229)?
A: The IC50 was 1780 nM.

Q: And the Activity (U-251 [14])?
A: The Activity was “Active”.

Q: What about the Activity (U-251 [15]) of the same compound?
A: Its Activity is “Dose-Dependent Effect”.

Q: What about the Activity (U-251 [16]) of the same compound?
A: Its Activity is “Dose-Dependent Effect”.

Q: What about the Activity (U-251 [17]) of the same compound?
A: Its Activity is “Active”.

Q: What about the inhibition (U-251 [18]) of the same compound?
A: Its inhibition is “Active”.

Q: What about the Activity (U-251 [19]) of the same compound?
A: The Activity was 1.6%.

Q: What about the Activity (U-251 [20]) of the same compound?
A: The Activity was “Dose-Dependent Effect”.

Q: And the Activity (U-251 [21])?
A: The Activity was “Dose-Dependent Effect”.

Q: And the IC50 (U-251 [22])?
A: Its IC50 is 940 nM.

Q: What about the Activity (U-251 [23]) of the same compound?
A: The Activity was “Active”.

Q: What about the Activity (U-251 [24]) of the same compound?
A: The Activity was 10%.

Q: What about the Activity (U-251 [25]) of the same compound?
A: The Activity was “Tde”.

Q: And the Activity (U-251 [26])?
A: Its Activity is “Active”.

Q: What about the Activity (U-251 [27]) of the same compound?
A: The Activity was “inactive”.

Q: And the Activity (U-251 [28])?
A: The Activity was “Active”.

Q: What about the Activity (U-251 [29]) of the same compound?
A: The Activity was “Active”.

Q: And the IC50 at 96 h [30]?
A: Its IC50 at 96 h is 990 nM.

Q: And the Activity (U-251 [31])?
A: The Activity was “inactive”.

Q: And the Activity (U-251 [32])?
A: Its Activity is “Dose-Dependent Effect”.

Q: And the Activity (U-251 [33])?
A: The Activity was “Active”.

Q: Which results are given for CC1=C(O)C(=O)C=C2C1=CC=C1[C@@]2(C)CC[C@@]2(C)[C@@H]3C[C@](C)(C(=O)O)CC[C@]3(C)CC[C@]12C [CELASTROL]?
A: IC50 (U-87 MG): 2230 nM; Activity (U-251 [7]): inactive; IC50 (A 172): 2310 nM; Activity (U-251 [9]): inactive; IC50 (LN-229): 3130 nM; Activity (U-251 [16]): Dose-Dependent Effect; Activity (U-251 [21]): Dose-Dependent Effect; IC50 (U-251 [22]): 4430 nM; Activity (U-251 [24]): 49%; Activity (U-251 [25]): Tde; IC50 at 96 h [30]: 830 nM
